Laboratory results published in patent US6448405B1, “Steroid receptor modulator compounds and methods” (Ligand Pharmaceuticals Incorporated, priority 1994, dated 2002).
Where two headings read alike, the source gives them in different places.

Legend:
human PR-B = biological target: T1, human PR-B (Homo sapiens, UniProt P06401); experiment: Co-transfection assay, PR agonist and antagonist activity, CV-1 cells; assay type: cell-based; details: for EC50: agonist mode, read-out: PR Agonist CV-1 Cells Potency;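 on all read-outs here: luciferase reporter driven by a hormone response element, co-transfected with human PR-B into CV-1 monkey kidney cells, agonists raise and antagonists lower the reporter signal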
T1 construct: expressed in transfected cells; host or cells: CV-1 cells (African green monkey kidney fibroblasts), transient transfection
T1 sequence (P06401 1-933): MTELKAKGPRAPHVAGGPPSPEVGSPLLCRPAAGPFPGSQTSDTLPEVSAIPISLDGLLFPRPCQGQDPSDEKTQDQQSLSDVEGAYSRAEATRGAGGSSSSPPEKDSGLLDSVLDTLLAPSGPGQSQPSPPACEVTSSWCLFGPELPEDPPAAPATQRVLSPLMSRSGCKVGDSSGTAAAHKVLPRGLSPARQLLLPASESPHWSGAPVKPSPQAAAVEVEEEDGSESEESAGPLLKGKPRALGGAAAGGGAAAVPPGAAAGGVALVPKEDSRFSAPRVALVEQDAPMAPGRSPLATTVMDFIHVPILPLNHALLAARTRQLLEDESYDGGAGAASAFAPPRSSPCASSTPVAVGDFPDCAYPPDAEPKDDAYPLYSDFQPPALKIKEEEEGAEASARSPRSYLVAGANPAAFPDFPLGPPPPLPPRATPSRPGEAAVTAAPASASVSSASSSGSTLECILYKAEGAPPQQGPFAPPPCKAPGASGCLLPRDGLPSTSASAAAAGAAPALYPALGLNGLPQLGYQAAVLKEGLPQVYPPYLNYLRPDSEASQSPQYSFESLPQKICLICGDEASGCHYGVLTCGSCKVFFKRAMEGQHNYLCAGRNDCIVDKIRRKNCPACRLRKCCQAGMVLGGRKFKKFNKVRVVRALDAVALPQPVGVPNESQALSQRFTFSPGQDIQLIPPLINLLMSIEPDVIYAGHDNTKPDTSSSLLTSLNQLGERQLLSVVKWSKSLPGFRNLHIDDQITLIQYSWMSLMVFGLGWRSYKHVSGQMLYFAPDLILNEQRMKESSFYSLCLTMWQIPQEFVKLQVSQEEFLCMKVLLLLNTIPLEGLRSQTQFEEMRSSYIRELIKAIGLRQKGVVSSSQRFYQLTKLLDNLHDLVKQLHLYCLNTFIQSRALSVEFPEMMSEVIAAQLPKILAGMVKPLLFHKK

[1] = biological target: T2, human progesterone receptor A form (PR-A) (Homo sapiens, UniProt P06401); experiment: PR binding assay, baculovirus extract, [3H] progesterone
T2 sequence (P06401 1-769 isoform P06401-2): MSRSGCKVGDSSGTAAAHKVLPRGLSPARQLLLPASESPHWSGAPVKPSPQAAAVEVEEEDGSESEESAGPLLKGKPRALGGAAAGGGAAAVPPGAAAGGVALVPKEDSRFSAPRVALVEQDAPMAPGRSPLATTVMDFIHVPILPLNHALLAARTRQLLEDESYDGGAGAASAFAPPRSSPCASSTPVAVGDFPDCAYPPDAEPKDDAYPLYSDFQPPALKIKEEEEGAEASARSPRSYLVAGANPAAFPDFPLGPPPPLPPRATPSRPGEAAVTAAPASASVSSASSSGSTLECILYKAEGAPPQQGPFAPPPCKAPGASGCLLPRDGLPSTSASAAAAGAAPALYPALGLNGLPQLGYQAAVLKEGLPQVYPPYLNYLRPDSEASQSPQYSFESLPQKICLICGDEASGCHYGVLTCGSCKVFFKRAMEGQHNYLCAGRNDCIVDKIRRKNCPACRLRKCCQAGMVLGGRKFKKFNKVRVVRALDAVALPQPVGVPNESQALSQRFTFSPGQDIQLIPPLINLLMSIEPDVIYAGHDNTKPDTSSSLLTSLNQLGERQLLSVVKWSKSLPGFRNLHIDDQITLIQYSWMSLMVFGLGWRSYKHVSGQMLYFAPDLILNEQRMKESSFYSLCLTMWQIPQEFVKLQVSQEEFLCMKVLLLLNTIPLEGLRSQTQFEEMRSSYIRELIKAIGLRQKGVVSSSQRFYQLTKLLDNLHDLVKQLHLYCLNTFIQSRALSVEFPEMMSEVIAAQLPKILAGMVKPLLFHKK

PR, AR, ER, GR and MR = experiment: cis-trans or co-transfection assay, steroid receptor panel (cross-reactivity); assay type: cell-based, human; details: as seen in the Tables
[2] = tested on: uterine wet weight in ovariectomized Sprague-Dawely rats; experiment: Uterine wet weight assay (PR agonists); assay type: in vivo, rat; details: for effect on uterine wet weight when co-administered with estrone: MPA and Compound 210 at 0.3, 1.0 and 3.0 mg/rat, Compound 163 at 3 mg/rat
Source text: The effectiveness of selected compounds of the present invention as PR agonists was investigated in the well recognized uterine wet weight assay, as described in G. J. Marcus, “Mitosis in the rat uterus during the estrous cycle, early pregnancy and early pseudopregnancy”, 10 Biol. Reprod., 447 (1974), S. […] J. Obstet. […] I. Dorfman, “Estrogens” (Ch. 2) and “Antiestrogens” (Ch. 3). in Methods in Hormone Research, ed. R. I. Dorfman, Academic Press, New York, New York, pp101-130 (1969), the disclosures of which are herein incorporated by reference. Four to five week old, ovariectomized, Sprague-Dawely rats (Harlan-Sprague-Dawely, Indianapolis, Ind.) were obtained 1 week after surgery and allowed to acclimate for an additional week after shipment. […] Louis, Mo.) a synthetic estrogen agonist, were fully dissolved in purified sesame oil (Croda, Parsippany, N.J.). […] Additional control groups of rats were administered estrone or vehicle (i.e. sesame oil) alone. Animals were sacrificed on the fourth day of the experiment.

[3] = biological target: T3, human glucocorticoid receptor (GR) (Homo sapiens, UniProt P04150); experiment: Co-transfection assay, GR antagonist activity, CV-1 cells (pRShGR); assay type: cell-based; details: for GR Antagonist CV-1 Cells Efficacy (%): Table 4, antagonist mode, % maximal inhibition
T3 construct: expressed in transfected cells; host or cells: CV-1 cells, transient transfection
T3 sequence (P04150 1-777): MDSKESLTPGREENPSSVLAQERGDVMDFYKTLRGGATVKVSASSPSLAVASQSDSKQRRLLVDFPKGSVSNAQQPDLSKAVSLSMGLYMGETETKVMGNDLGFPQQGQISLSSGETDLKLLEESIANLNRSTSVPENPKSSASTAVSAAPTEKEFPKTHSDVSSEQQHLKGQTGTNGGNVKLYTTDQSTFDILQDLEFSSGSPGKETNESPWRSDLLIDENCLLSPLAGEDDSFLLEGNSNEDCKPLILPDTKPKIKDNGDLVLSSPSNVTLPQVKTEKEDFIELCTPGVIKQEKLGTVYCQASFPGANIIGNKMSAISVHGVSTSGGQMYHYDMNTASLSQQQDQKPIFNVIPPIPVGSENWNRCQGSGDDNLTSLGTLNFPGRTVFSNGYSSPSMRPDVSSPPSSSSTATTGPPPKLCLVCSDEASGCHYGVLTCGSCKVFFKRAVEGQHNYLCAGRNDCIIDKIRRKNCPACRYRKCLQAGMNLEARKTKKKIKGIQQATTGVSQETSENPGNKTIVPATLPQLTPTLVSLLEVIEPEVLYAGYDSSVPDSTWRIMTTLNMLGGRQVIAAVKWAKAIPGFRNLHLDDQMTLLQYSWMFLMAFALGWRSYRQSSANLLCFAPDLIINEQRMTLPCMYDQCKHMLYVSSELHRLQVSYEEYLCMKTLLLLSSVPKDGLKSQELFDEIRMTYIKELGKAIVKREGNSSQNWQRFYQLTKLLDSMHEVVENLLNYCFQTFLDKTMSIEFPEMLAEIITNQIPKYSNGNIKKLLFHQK

[4] = biological target: T4, human mineralocorticoid receptor (MR) (Homo sapiens, UniProt P08235); experiment: Co-transfection assay, MR antagonist activity, CV-1 cells (pRShMR); assay type: cell-based; details: Table 4; antagonist mode; % maximal inhibition
T4 construct: expressed in transfected cells; host or cells: CV-1 cells, transient transfection
T4 sequence (P08235 1-984): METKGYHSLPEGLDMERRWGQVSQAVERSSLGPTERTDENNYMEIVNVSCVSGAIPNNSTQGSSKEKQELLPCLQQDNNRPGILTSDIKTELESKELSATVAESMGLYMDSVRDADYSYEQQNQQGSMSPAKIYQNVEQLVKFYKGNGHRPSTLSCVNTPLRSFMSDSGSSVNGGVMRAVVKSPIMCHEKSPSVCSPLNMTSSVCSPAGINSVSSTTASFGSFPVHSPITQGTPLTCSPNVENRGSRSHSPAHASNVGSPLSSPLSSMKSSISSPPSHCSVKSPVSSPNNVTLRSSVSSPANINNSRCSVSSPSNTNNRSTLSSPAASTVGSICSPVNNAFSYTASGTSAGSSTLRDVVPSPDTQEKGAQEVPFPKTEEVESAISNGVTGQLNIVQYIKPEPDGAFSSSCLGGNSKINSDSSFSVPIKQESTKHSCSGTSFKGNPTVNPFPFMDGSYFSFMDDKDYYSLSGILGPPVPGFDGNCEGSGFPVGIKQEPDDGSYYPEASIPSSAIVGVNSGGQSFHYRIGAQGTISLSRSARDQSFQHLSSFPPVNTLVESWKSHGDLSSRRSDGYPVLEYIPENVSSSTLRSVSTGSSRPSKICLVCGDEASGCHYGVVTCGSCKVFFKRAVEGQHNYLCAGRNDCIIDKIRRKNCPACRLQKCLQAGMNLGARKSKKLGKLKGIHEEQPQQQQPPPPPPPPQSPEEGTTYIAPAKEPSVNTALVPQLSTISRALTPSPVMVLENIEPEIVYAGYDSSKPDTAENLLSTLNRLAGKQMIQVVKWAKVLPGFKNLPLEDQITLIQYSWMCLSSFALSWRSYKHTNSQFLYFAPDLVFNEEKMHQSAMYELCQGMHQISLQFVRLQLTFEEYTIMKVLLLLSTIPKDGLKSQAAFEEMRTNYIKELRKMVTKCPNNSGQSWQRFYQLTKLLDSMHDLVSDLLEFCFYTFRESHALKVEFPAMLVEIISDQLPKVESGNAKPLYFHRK

[5] = read-out: PR Antagonist CV-1 Cells Potency
[6] = 0.3 mg/rat oral once a day for three days + E1 10 μg
[7] = 1.0 mg/rat oral once a day for three days + E1 10 μg
[8] = 3.0 mg/rat oral once a day for three days + E1 10 μg

CC1=CC(C)(C)Nc2ccc3c(c21)C(c1cccc(F)c1)Oc1ccccc1-3 (racemic) [Compound 191, (R/S)-5-(3-Fluorophenyl)-1,2-dihydro-2,2,4-trimethyl-5H-chromeno[3,4-f]quinoline]
EC50 (human PR-B): 9 nM | IC50 (human PR-B; [5]): 150 nM | Ki ([1]; read-out: PR Binding Ki): 1 nM | steroid receptor selectivity profile (PR, AR, ER, GR and MR): highly selective PR agonists

CCCCC1Oc2ccc(F)cc2-c2ccc3c(c21)C(C)=CC(C)(C)N3 (racemic) [Compound 210, (R/S)-5-Butyl-9-fluoro-1,2-dihydro-2,2,4-trimethyl-5H-chromeno[3,4-f]quinoline]
Mean Uterine Wet Weight [2, 6]: 110 mg | Mean Uterine Wet Weight [2, 7]: 100 mg | Mean Uterine Wet Weight [2, 8]: 100 mg | effect on uterine wet weight when co-administered with estrone [2]: decreased by approximately half

CC1CC(C)(C)Nc2ccc(-c3cc(F)cc(C#N)c3)cc21 (racemic) [Compound 455, (R/S)-6-(3-Cyano-5-Fluorophenyl)-1,2,3,4-Tetrahydro-2,2,4-trimethylquinoline]
PR Agonist CV-1 Cells Efficacy (%) (human PR-B): na (na = not active (i.e. efficacy or <20 and potency of >10,000)) | PR Antagonist CV-1 Cells Efficacy (%) (human PR-B): 76% | EC50 (human PR-B): > 10000 nM | IC50 (human PR-B; [5]): 35 nM | Ki ([1]; read-out: PR Binding Ki): 10 nM | steroid receptor selectivity profile (PR, AR, ER, GR and MR): highly selective PR antagonists

CC1(C)C=Cc2c(ccc3c2/C(=C/c2ccccc2)Oc2ccc(Cl)cc2-3)N1 [Compound 368, (Z)-5-Benzylidene-9-chloro-1,2-dihydro-2,2-dimethyl-5H-chromeno[3,4-f]quinoline]
PR Agonist CV-1 Cells Efficacy (%) (human PR-B): 183% | PR Antagonist CV-1 Cells Efficacy (%) (human PR-B): na (na = not active (i.e. efficacy or <20 and potency of >10,000)) | EC50 (human PR-B): 43 nM | IC50 (human PR-B; [5]): > 10000 nM | Ki ([1]; read-out: PR Binding Ki): 4 nM

CC1=CC(C)(C)Nc2cc(C)c3c(c21)/C(=C/c1ccccc1)Oc1ccc(F)cc1-3 [Compound 377, (Z)-5-Benzylidene-9-Fluoro-1,2-dihydro-2,2,4,11-tetramethyl-5H-chromeno[3,4-f]quinoline]
PR Agonist CV-1 Cells Efficacy (%) (human PR-B): 101% | PR Antagonist CV-1 Cells Efficacy (%) (human PR-B): na (na = not active (i.e. efficacy or <20 and potency of >10,000)) | EC50 (human PR-B): 550 nM | IC50 (human PR-B; [5]): > 10000 nM | Ki ([1]; read-out: PR Binding Ki): 20 nM

CC1=CC(C)(C)Nc2ccc(-c3csc(C#N)c3)cc21 [Compound 452, 6-(5-Cyano-3-thienyl)-1,2-dihydro-2,2,4-trimethylquinoline]
IC50 (human PR-B): 24 nM | EC50 (human PR-B): 2400 nM | Ki [1]: 17 nM

CC(=O)O[C@]1(C(C)=O)CC[C@H]2[C@@H]3C[C@H](C)C4=CC(=O)CC[C@]4(C)[C@H]3CC[C@@]21C [MPA, medroxyprogesterone acetate, reference compound]
Mean Uterine Wet Weight [2, 6]: 140 mg | Mean Uterine Wet Weight [2, 7]: 130 mg | Mean Uterine Wet Weight [2, 8]: 130 mg | effect on uterine wet weight when co-administered with estrone [2]: significantly decreased

CC#C[C@]1(O)CC[C@H]2[C@@H]3CCC4=CC(=O)CCC4=C3[C@@H](c3ccc(N(C)C)cc3)C[C@@]21C [RU486, (11 beta, 17 beta)-11-[4-(dimethylamino)phenyl]-17-hydroxy-17-(1-propynyl)estra-4,9-dien-3-one, reference compound]
GR Antagonist CV-1 Cells Efficacy (%) [3]: 100% | MR Antagonist CV-1 Cells Efficacy (%) [4]: 77%

CC(=O)S[C@@H]1CC2=CC(=O)CC[C@]2(C)[C@H]2CC[C@@]3(C)[C@@H](CC[C@@]34CCC(=O)O4)[C@H]12 [Spir, reference compound]
IC50 [3]: 2000 nM | GR Antagonist CV-1 Cells Efficacy (%) [3]: 80% | MR Antagonist CV-1 Cells Efficacy (%) [4]: 96%
